Patent US20190175728A1, “NUCLEIC ACID-ANTIGEN PEPTIDE CONJUGATE” (NAPAJEN PHARMA, INC., priority 2017, published 2019)
No end group written: not given here.

Key:
[1] = tested on: OVA257-264 presenting cells (CFSE^high spleen cells); assay: In vivo CTL assay; parameters: species or system C57BL/6J mice; settings: target cells given day 7, counted after 24 hours
Method: SPG/dA40(S)-OVA257-264 (20, 100, 500 ng in the amount of OVA257-264) and CpG-dA40(S)/SPG (30 μg in the amount of CpG-dA) were intradermally administered to C57BL/6J mice.
On day 7 of administration, spleen cells were provided according to the following procedure. Spleen cells excised from normal C57BL/6J mice were treated with 10 μg/ml of OVA257-264 at 37° C. for 90 minutes. Thereafter, the spleen cells were washed three times with PBS, and the spleen cells were labeled with 5 μM carboxyfluorescein succinimidyl ester (CFSE); Invitrogen, Carlsbad, Calif.). Further, spleen cells not treated with OVA257-264 were similarly labeled with CFSE (0.5 μM). The labeled cells were washed three times with PBS. The spleen cells treated with OVA257-264 (CFSE^high) and the spleen cells not treated with OVA257-264 (CFSE^low) were mixed so that the number of the treated spleen cells was equal to the number of the untreated spleen cells. […] After that, the spleen cells were removed from the mice, and the CFSE-labeled cells were counted by flow cytometry.
OVA257-264 presenting cells were not observed when the dose of OVA257-264 was 100 ng/head or more. […] The difference in ability of inducing CTL reaction between SPG/dA40(S)-OVA257-264 and OVA257-264-click-dA40(S)/SPG was consistent with the result of Example 5 in which the antigen presenting ability was evaluated.

[2] = tested on: macrophages recovered from the peritoneal cavity; assay: Antigen presenting ability of dA40(S)-peptide conjugates, fluorescence microscopy after anti-OVA257-264/H-2Kb PE staining; format: cell-based, C57BL/6J mice; settings: conjugate 10 μM, 18 hours, 1.5×10^5 cells/well
Method: 3 ml of thioglycollate medium was administered to the peritoneal cavity of C57BL/6J mice 3 days later, macrophages were recovered from the peritoneal cavity. The resulting macrophages were seeded in 48 wells (1.5×10^5 cells/well), and further each of the dA40(S)-peptide conjugates was added to the wells at a concentration of 10 μM. […], the fixed cells were stained with Anti-Mouse OVA257-264 (SIINFEKL) peptide bound to H-2Kb PE, and the resulting cells were subjected to fluorescence microscopic observation.
In FIG. 3, pep(C)-dA40(S) represents a dA40(S)-peptide conjugate obtained by using peptide 1, dA40(S)-(C)pep represents a dA40(S)-peptide conjugate obtained by using peptide 2, dA40(S)-(C)pep long represents a dA40(S)-peptide conjugate obtained by using peptide 3, and dA40(S)-(C)pep long miss (L→K) represents a dA40(S)-peptide conjugate obtained by using peptide 4.

[3] = target: T1, murine endoplasmic reticulum aminopeptidase (Mus musculus, UniProt Q9EQH2); assay: Cleavage of dA40(S)-peptide conjugate by endoplasmic reticulum aminopeptidase (polyacrylamide gel electrophoresis); format: biochemical; settings: conjugate 1.5 μM, aminopeptidase 0.5 μg/ml, 25 mM Tris buffer pH 8.0, 37° C., 18 hours
T1 construct: purchased R & D Systems 2500-ZN
T1 sequence (Q9EQH2 1-930): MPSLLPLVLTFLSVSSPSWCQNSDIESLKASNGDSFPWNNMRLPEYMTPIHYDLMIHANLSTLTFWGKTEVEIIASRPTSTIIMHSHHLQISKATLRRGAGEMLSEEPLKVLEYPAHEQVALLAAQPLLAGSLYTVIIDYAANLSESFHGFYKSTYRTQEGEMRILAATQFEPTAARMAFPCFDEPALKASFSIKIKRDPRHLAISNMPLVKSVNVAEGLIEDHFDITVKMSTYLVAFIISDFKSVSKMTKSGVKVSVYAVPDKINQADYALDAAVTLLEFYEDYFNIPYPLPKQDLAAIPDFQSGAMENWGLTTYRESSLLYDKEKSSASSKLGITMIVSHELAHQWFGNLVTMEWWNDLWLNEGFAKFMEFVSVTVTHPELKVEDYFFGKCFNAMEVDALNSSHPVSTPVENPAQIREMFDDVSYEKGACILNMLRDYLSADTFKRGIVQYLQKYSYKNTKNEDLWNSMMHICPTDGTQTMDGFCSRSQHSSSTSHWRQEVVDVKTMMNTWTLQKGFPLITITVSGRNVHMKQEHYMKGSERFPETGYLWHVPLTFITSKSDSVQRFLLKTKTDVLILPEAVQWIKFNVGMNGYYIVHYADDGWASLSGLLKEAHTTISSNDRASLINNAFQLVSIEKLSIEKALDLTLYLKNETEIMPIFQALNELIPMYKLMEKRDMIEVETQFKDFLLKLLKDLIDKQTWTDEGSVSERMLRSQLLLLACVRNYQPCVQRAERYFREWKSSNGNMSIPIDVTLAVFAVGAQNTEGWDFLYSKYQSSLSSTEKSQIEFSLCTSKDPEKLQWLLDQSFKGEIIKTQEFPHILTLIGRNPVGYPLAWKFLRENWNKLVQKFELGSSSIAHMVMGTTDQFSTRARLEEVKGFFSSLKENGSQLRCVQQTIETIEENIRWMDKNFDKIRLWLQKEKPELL
Method: Each of the dA40(S)-peptide conjugates (1.5 μM) and murine endoplasmic reticulum aminopeptidase (0.5 μg/ml) (R & D Systems catalog Number 2500-ZN) were added to a 25 mM Tris buffer (pH 8.0) and the mixture was incubated at 37° C. for 18 hours. After completion of the reaction, polyacrylamide gel electrophoresis was carried out to observe the state of release from the dA40(S)-peptide conjugate.
In FIG. 2, pep(C)-dA40(S) represents a dA40(S)-peptide conjugate obtained by using peptide 1, dA40(S)-(C)pep represents a dA40(S)-peptide conjugate obtained by using peptide 2, dA40(S)-(C)pep long represents a dA40(S)-peptide conjugate obtained by using peptide 3, and dA40(S)-(C)pep long miss (L→K) represents a dA40(S)-peptide conjugate obtained by using peptide 4. […] Aminopeptidase is one of the enzymes that trim antigen peptides to present the antigen peptides to MHC. Accordingly, it is important for antigen presentation using the dA40(S)-peptide conjugate that even in the case of the peptide in which polydeoxyadenine is bonded to the N-terminal cysteine, the C-terminal side is composed of the hydrophobic amino acid residue. This fact was confirmed.

[4] = tested on: macrophages recovered from the peritoneal cavity; assay: Antigen presenting ability of SPG/dA40(S)-OVA257-264, flow cytometry after anti-OVA257-264/H-2Kb PE staining; format: cell-based, C57BL/6J mice; settings: concentration of OVA257-264 5 μg/ml, 18 hours
Method: 3 ml of thioglycollate medium was administered to the peritoneal cavity of C57BL/6J mice 3 days later, macrophages were recovered from the peritoneal cavity. The resulting macrophages were seeded in 48 wells (1.5×10^5 cells/well), and further SPG/dA40(S)-OVA257-264, dA40(S)-OVA257-264, or OVA257-264-click-dA40(S)/SPG was added at a concentration of OVA257-264 of 5 μg/ml. […], the fixed cells were stained with Anti-Mouse OVA257-264 (SIINFEKL) peptide bound to H-2Kb PE, and the resulting cells were analyzed by flow cytometry.

[5] = target: T2, dA40(S)-peptide conjugate obtained by using peptide 2
T2 chain: CSIINFEKL

[6] = target: T3, dA40(S)-peptide conjugate obtained by using peptide 1
T3 chain: SIINFEKLC

[7] = target: T4, dA40(S)-peptide conjugate obtained by using peptide 3
T4 chain: CQLESIINFEKL

SPG/dA40(S)-OVA257-264: complex of dA40(S)-OVA257-264 and schizophyllan (SPG) (SIINFEKL; also: dA40(S) conjugate, site not given here, complex with schizophyllan (SPG); UniProt P01012 258-265, looked up, fragment)
decrease in OVA257-264 presenting cells (CFSE^high spleen cells) ([1]; intradermal, 20, 100, 500 ng OVA257-264, together with CpG-dA40(S)/SPG 30 μg): observed depending on the dose of OVA257-264 | dose of OVA257-264 at which OVA257-264 presenting cells were not observed ([1]; intradermal, together with CpG-dA40(S)/SPG 30 μg): ≥ 100 ng/head

dA40(S)-(C)pep long miss (L→K): dA40(S) disulfide-bonded via LC-SPDP linker to N-terminal cysteine of peptide 4, CSIINFEKK (SEQ ID NO: 4) (cyclised or stapled)
fluorescence of OVA257-264 (SIINFEKL) bound to H-2Kb (antigen presentation) [2]: antigen presentation hardly occurred | state of release from the dA40(S)-peptide conjugate after enzyme treatment [3]: not recognized by the enzyme

dA40(S)-OVA257-264: conjugate of dA40(S) and ovalbumin antigen peptide OVA257-264 (SIINFEKL), prepared in the manner described in Example 1 (also: dA40(S) conjugate, site not given here; UniProt P01012 258-265, looked up, fragment)
antigen (OVA257-264) presentation level [4]: the same as that of SPG/dA40(S)-OVA257-264

pep(C)-dA40(S): dA40(S) disulfide-bonded via LC-SPDP linker to C-terminal cysteine of peptide 1, SIINFEKLC (SEQ ID NO: 1) (cyclised or stapled)
fluorescence of OVA257-264 (SIINFEKL) bound to H-2Kb (antigen presentation) [2]: Very weak fluorescence | state of release from the dA40(S)-peptide conjugate after enzyme treatment [3]: no change was observed in the electrophoretic distance

B1: murine endoplasmic reticulum aminopeptidase (R & D Systems catalog Number 2500-ZN) (protein)
chain: DIESLKASNGDSFPWNNMRLPEYMTPIHYDLMIHANLSTLTFWGKTEVEIIASRPTSTIIMHSHHLQISKATLRRGAGEMLSEEPLKVLEYPAHEQVALLAAQPLLAGSLYTVIIDYAANLSESFHGFYKSTYRTQEGEMRILAATQFEPTAARMAFPCFDEPALKASFSIKIKRDPRHLAISNMPLVKSVNVAEGLIEDHFDITVKMSTYLVAFIISDFKSVSKMTKSGVKVSVYAVPDKINQADYALDAAVTLLEFYEDYFNIPYPLPKQDLAAIPDFQSGAMENWGLTTYRESSLLYDKEKSSASSKLGITMIVSHELAHQWFGNLVTMEWWNDLWLNEGFAKFMEFVSVTVTHPELKVEDYFFGKCFNAMEVDALNSSHPVSTPVENPAQIREMFDDVSYEKGACILNMLRDYLSADTFKRGIVQYLQKYSYKNTKNEDLWNSMMHICPTDGTQTMDGFCSRSQHSSSTSHWRQEVVDVKTMMNTWTLQKGFPLITITVSGRNVHMKQEHYMKGSERFPETGYLWHVPLTFITSKSDSVQRFLLKTKTDVLILPEAVQWIKFNVGMNGYYIVHYADDGWASLSGLLKEAHTTISSNDRASLINNAFQLVSIEKLSIEKALDLTLYLKNETEIMPIFQALNELIPMYKLMEKRDMIEVETQFKDFLLKLLKDLIDKQTWTDEGSVSERMLRSQLLLLACVRNYQPCVQRAERYFREWKSSNGNMSIPIDVTLAVFAVGAQNTEGWDFLYSKYQSSLSSTEKSQIEFSLCTSKDPEKLQWLLDQSFKGEIIKTQEFPHILTLIGRNPVGYPLAWKFLRENWNKLVQKFELGSSSIAHMVMGTTDQFSTRARLEEVKGFFSSLKENGSQLRCVQQTIETIEENIRWMDKNFDKIRLWLQKEKPELL
release of dA40(S) from the conjugate, polyacrylamide gel electrophoresis after enzyme treatment [5]: a band of dA40(S) was slightly observed after the enzyme treatment | release of dA40(S) from the conjugate, polyacrylamide gel electrophoresis after enzyme treatment [6]: no change was observed in the electrophoretic distance even when subjected to enzyme treatment | release of dA40(S) from the conjugate, polyacrylamide gel electrophoresis after enzyme treatment [7]: the peptide was almost completely released and a band of dA40(S) was observed
